Measured values as given in ChEMBL document CHEMBL1201862, “PubChem BioAssay data set” (2004).
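96-well plates; 48 h exposure; 5 concentrations. Endpoints by linear interpolation between flanking doses. Not reached: highest tested concentration assigned. Here, GI50 denotes the concentration required for 50% inhibition of growth.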 The source made the active and inactive calls. Cut-off read from the data, not from the text of the source: active = GI50 up to about 1.1 µM and inactive = higher.

What was measured:
Assay in all cases: NCI anticancer screen, dose series, 48 h
786-0 = tested on: 786-0
A549 = tested on: A549
COLO 205 = tested on: COLO 205
DMS-114 = tested on: DMS-114
HOP-92 = tested on: HOP-92
HT-29 = tested on: HT-29
IGROV-1 = tested on: IGROV-1
LOX IMVI = tested on: LOX IMVI
Malme-3M = tested on: Malme-3M
NCI-H226 = tested on: NCI-H226
NCI-H23 = tested on: NCI-H23
OVCAR-4 = tested on: OVCAR-4
OVCAR-5 = tested on: OVCAR-5
OVCAR-8 = tested on: OVCAR-8
RXF 393 = tested on: RXF 393
SK-MEL-5 = tested on: SK-MEL-5
SK-OV-3 = tested on: SK-OV-3
SW-620 = tested on: SW-620
UACC-62 = tested on: UACC-62
NCI/ADR-RES = tested on: NCI/ADR-RES

Row | Compound | GI50 (786-0) | GI50 (A549) | GI50 (COLO 205) | GI50 (DMS-114) | GI50 (HOP-92) | GI50 (HT-29) | GI50 (IGROV-1) | GI50 (LOX IMVI) | GI50 (Malme-3M) | GI50 (NCI-H226) | GI50 (NCI-H23) | GI50 (OVCAR-4) | GI50 (OVCAR-5) | GI50 (OVCAR-8) | GI50 (RXF 393) | GI50 (SK-MEL-5) | GI50 (SK-OV-3) | GI50 (SW-620) | GI50 (UACC-62) | GI50 (NCI/ADR-RES)
1 | O=C(NCCCCCCCCNC(=O)c1cnc2ccccc2n1)c1cnc2ccccc2n1 | > 100 µM (inactive) | > 100 µM (inactive) | > 100 µM (inactive) | > 100 µM (inactive) | > 100 µM (inactive) | > 100 µM (inactive) | > 100 µM (inactive) | > 100 µM (inactive) | > 100 µM (inactive) | 32.1 µM (inactive) | > 100 µM (inactive) | > 100 µM (inactive) | > 100 µM (inactive) | > 100 µM (inactive) | > 100 µM (inactive) | > 100 µM (inactive) | > 100 µM (inactive) | > 100 µM (inactive) | > 100 µM (inactive) | –
2 | Cc1ccc(C)c(NC(=O)CC/C(=N\NC(=O)C(N)=O)C(C)C(=O)c2ccc(O)cc2)c1 (configuration not stated) | > 100 µM (inactive) | > 100 µM (inactive) | > 100 µM (inactive) | > 100 µM (inactive) | > 100 µM (inactive) | > 100 µM (inactive) | > 100 µM (inactive) | > 100 µM (inactive) | > 100 µM (inactive) | > 100 µM (inactive) | > 100 µM (inactive) | > 100 µM (inactive) | > 100 µM (inactive) | > 100 µM (inactive) | 61.1 µM (inactive) | > 100 µM (inactive) | > 100 µM (inactive) | > 100 µM (inactive) | > 100 µM (inactive) | –
3 | COC(=O)C1[C@@H](C(=O)OC)C(=O)O[C@H]1c1cc(OC)c(OC)c(OC)c1 (some centres not stated) | > 100 µM (inactive) | > 100 µM (inactive) | > 100 µM (inactive) | > 100 µM (inactive) | > 100 µM (inactive) | > 100 µM (inactive) | > 100 µM (inactive) | > 100 µM (inactive) | > 100 µM (inactive) | > 100 µM (inactive) | > 100 µM (inactive) | > 100 µM (inactive) | > 100 µM (inactive) | > 100 µM (inactive) | > 100 µM (inactive) | > 100 µM (inactive) | > 100 µM (inactive) | > 100 µM (inactive) | > 100 µM (inactive) | –
4 | CCCCCCCCCCCCC(O)C1CCC(C(O)CCCCC(O)CCCCCC2CC(CC(C)=O)C(=O)O2)O1 (configuration not stated) | 6.79 µM (inactive) | 3.21 µM (inactive) | 3.19 µM (inactive) | < 0.01 µM (active) | 0.986 µM (active) | 3.5 µM (inactive) | 5.78 µM (inactive) | 1.4 µM (inactive) | 0.94 µM (active) | 1.82 µM (inactive) | < 0.01 µM (active) | 1.44 µM (inactive) | 8.75 µM (inactive) | 3.44 µM (inactive) | 4.29 µM (inactive) | 0.0931 µM (active) | 11.9 µM (inactive) | 5.87 µM (inactive) | 1.7 µM (inactive) | 0.29 µM (active)
